Patent publication US9012443B2 (Amgen Inc., priority 2011, dated 2015)
Structures can show the parent of a compound that is named as a salt. Where two headings read alike, the source gives them in different places.

Columns and labels:
Type in all cases: cell-based
Nav 1.5 = Nav 1.5 (Homo sapiens (Human), UniProt Q14524); assay: Nav 1.5 in vitro PX assay (PatchXpress whole cell voltage clamp); conditions: 293 cells stably transfected with Nav 1.5
Description: Nav 1.5 In Vitro PX Assay
293 cells stably transfected with Nav 1.5 were recorded in whole cell voltage clamp mode with the PatchXpress automated electrophysiology system according the manufacturer's specifications (Molecular Devices, LLC, Sunnyvale, Calif.). Cells were held at a holding potential of −50 mV to inactivate sodium channels. To elicit sodium currents the voltage was changed to −120 mV to recover a portion of the channels, followed by delivery of test pulses of 20 msec duration to 0 mV, at 0.1 Hz. A single concentration of test compound was applied to cells for a duration of 5 minutes. Peak sodium current was measured at the end of the compound addition period to determine percent inhibition. A minimum of two cells were tested per concentration. IC50 curves were fitted to percent inhibition as a function of concentration.

Nav 1.7 [1] = target: T1, Nav 1.7 (Homo sapiens (Human), UniProt Q15858); assay: Nav 1.7 in vitro PX assay (PatchXpress whole cell voltage clamp); conditions: 293 cells, human Nav1.7, partially inactivated state; read-out: Nav1.7 PX IC50 IP
Method in brief: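 HEK293 cells stably expressing human Nav1.7, whole-cell voltage clamp on PatchXpress, held at potential giving 20–50% inactivation; current elicited by 20 msec pulse to −10 mV.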

Nav 1.7 [2] = target: T1, Nav 1.7; assay: Nav 1.7 IWQ in vitro assay (IonWorks Quattro population patch-clamp); conditions: for IC50: 293 cells stably transfected with Nav 1.7, second part of table, read-out: Nav1.7 IWQ IC50 IP
Method in brief: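 HEK293 cells stably expressing Nav 1.7, recorded by automated population patch-clamp with a train of depolarizations producing increasing inactivation. Single compound concentration added during 3–8 min unclamped period, then same protocol repeated. Leak-corrected current at 26th pulse to −20 mV gave percent block (duplicate); IC50 fitted from concentration–block curves.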

[3] = first part of table, read-out: Nav 1.5 PX IC50
[4] = second part of table, read-out: Nav1.5 PX IC50

T1 sequence (Q15858 whole entry): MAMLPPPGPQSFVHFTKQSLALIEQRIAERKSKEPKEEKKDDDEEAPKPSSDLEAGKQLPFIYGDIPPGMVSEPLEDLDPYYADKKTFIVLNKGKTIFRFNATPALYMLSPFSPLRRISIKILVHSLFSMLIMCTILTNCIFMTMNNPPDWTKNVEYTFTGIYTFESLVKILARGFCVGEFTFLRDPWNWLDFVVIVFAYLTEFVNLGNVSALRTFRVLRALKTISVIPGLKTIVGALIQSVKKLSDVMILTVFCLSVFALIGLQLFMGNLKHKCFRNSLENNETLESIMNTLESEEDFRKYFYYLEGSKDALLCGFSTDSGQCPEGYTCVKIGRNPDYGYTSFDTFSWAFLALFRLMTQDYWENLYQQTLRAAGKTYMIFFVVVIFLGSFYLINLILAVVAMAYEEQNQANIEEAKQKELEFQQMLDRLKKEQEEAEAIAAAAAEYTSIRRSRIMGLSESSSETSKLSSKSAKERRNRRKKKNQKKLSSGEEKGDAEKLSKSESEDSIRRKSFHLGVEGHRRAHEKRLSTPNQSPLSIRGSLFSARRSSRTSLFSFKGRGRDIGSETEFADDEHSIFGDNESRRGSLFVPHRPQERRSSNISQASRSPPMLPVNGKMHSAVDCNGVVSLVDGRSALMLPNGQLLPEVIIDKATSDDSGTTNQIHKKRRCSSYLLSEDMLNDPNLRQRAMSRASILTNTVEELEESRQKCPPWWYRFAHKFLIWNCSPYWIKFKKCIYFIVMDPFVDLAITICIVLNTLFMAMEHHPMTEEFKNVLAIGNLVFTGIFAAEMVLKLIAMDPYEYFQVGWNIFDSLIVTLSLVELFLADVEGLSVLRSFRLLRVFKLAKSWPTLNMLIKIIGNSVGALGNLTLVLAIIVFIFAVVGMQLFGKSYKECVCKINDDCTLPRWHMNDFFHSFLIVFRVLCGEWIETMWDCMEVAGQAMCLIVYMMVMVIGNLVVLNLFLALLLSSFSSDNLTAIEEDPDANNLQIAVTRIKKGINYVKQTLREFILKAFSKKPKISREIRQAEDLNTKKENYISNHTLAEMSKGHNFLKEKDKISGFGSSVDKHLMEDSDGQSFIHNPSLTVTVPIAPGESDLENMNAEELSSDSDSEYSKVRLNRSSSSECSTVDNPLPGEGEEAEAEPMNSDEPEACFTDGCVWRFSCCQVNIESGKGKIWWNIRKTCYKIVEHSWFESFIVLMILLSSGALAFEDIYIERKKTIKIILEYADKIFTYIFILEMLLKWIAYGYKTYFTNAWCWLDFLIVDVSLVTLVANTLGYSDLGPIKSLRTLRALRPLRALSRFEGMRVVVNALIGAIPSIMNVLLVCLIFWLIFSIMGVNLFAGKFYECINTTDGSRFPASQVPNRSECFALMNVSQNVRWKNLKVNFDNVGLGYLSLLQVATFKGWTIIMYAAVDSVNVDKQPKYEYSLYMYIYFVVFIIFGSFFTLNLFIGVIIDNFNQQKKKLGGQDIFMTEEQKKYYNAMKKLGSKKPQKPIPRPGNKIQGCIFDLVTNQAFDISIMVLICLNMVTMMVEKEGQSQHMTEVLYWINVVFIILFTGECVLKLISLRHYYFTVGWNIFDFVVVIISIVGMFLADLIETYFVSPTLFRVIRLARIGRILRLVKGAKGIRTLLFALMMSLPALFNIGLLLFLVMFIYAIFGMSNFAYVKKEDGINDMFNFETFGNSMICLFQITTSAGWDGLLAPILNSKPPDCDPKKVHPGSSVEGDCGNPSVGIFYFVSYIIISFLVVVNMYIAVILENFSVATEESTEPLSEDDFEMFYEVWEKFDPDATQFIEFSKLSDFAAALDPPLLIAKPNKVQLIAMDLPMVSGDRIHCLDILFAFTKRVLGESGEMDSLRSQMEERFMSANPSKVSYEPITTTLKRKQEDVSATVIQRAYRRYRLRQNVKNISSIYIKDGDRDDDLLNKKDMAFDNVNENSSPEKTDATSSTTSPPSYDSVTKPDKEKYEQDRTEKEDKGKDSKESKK
Nav 1.5, sequence (Q14524 whole entry): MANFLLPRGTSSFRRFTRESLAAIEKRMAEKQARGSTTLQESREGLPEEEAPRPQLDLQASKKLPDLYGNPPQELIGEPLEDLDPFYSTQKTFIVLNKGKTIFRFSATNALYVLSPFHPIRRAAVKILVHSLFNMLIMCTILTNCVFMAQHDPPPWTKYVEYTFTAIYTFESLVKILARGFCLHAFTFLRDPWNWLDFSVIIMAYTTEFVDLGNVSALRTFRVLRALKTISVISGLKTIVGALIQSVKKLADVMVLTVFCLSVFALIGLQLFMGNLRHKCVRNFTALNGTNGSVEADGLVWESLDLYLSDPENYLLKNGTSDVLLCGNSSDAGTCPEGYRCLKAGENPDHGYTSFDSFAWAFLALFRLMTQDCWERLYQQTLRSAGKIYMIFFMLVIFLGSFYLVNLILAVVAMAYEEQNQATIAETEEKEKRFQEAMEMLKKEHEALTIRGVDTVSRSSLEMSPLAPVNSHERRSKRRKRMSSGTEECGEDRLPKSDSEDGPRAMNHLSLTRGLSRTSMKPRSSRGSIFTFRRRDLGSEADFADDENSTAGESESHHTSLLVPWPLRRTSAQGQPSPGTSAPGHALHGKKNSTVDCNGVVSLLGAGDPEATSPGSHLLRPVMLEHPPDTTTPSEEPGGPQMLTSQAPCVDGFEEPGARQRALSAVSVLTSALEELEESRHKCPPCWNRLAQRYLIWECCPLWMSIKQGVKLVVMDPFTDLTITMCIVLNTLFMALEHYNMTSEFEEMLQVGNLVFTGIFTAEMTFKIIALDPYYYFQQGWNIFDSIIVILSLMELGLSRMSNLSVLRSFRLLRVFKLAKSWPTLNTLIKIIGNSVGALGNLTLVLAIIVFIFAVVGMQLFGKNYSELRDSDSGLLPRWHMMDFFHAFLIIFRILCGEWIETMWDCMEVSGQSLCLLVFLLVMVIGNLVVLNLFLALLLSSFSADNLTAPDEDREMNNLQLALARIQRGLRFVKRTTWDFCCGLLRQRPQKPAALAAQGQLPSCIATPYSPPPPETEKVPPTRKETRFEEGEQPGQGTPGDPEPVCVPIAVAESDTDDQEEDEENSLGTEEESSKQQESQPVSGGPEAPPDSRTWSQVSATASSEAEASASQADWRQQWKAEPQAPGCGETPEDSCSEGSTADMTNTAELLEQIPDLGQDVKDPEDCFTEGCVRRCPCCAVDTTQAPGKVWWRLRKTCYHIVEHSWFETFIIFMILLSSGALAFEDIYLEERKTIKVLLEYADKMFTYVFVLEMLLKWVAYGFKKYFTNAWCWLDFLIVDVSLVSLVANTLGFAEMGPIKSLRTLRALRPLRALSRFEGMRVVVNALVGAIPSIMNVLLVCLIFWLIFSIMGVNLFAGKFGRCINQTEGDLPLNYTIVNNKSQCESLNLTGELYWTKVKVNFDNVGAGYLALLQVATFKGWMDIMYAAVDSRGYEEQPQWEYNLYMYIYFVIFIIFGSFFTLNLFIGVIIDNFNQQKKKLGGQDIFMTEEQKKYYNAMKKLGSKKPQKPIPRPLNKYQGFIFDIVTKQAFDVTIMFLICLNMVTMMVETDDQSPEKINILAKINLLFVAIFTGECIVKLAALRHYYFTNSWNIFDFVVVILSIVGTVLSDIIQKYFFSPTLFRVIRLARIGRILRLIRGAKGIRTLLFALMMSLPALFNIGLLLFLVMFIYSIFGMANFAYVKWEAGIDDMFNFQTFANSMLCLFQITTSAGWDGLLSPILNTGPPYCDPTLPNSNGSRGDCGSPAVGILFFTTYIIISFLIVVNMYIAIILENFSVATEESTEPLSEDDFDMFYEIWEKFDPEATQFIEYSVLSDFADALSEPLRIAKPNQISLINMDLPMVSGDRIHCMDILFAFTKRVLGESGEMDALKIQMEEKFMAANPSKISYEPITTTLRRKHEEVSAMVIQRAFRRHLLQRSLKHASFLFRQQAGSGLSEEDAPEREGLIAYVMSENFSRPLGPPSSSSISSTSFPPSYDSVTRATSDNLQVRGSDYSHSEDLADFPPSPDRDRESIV

| Compound | IC50 (Nav 1.7 [1]) [nM] | IC50 (Nav 1.7 [2]) [nM] | Nav1.7 Single Point Data IWQ (at […]) (%) (Nav 1.7 [2]) | IC50 (Nav 1.5; [3]) [nM] | IC50 (Nav 1.5; [4]) [nM] |
| --- | --- | --- | --- | --- | --- |
| COc1cc(Cl)ccc1-c1cccc2cc(S(=O)(=O)Nc3ncns3)ccc12 [Example 30] |  |  |  | 19900 |  |
| Nc1cc(Cl)ccc1-c1cccc2cc(S(=O)(=O)Nc3ncns3)ccc12 [Example 31] |  |  |  | > 30000 |  |
| Cc1cc(Cl)ccc1-c1cccc2cc(S(=O)(=O)Nc3ncns3)ccc12 [Example 33] |  |  |  | 9580 |  |
| O=S(=O)(Nc1ncns1)c1ccc2c(-c3ccc(Cl)cc3)cccc2c1 [Example 34] |  |  |  | 5960 |  |
| O=S(=O)(Nc1ncns1)c1ccc2c(-c3ccc(Cl)cc3F)cccc2c1 [Example 35] |  |  |  | 9990 |  |
| O=S(=O)(Nc1ncns1)c1ccc2c(-c3ccc(C(F)(F)F)cc3F)cccc2c1 [Example 36] |  |  |  | 15100 |  |
| O=S(=O)(Nc1ncns1)c1ccc2c(-c3ccc(C(F)(F)F)cc3)cccc2c1 [Example 37] |  |  |  | 14400 |  |
| COc1cc(C)ccc1-c1nccc2cc(S(=O)(=O)Nc3nccs3)ccc12 [Example 175] |  |  |  |  | > 30000 |
| COc1cc(Cl)ccc1-c1ncnc2cc(S(=O)(=O)Nc3nccs3)ccc12 [Example 267, 4-(4-CHLORO-2-METHOXYPHENYL)-N-(THIAZOL-2-YL)QUINAZOLINE-7-SULFONAMIDE] | 300 | 10 |  |  |  |
| COc1cc(C(F)(F)F)ccc1-c1ncnc2cc(S(=O)(=O)Nc3nncs3)ccc12 [Example 268, 4-(2-METHOXY-4-(TRIFLUOROMETHYL)PHENYL)-N-(1,3,4-THIADIAZOL-2-YL)QUINAZOLINE-7-SULFONAMIDE] | 2520 | 1100 |  |  |  |
| COc1ccccc1-c1ncnc2cc(S(=O)(=O)Nc3nccs3)ccc12 [Example 272, 4-(2-METHOXYPHENYL)-N-(THIAZOL-2-YL)QUINAZOLINE-7-SULFONAMIDE] | 460 |  |  |  | > 30000 |
| COc1cc(Cl)ccc1-c1ccnc2cc(S(=O)(=O)Nc3nccs3)ccc12 [Example 275, 4-(4-CHLORO-2-METHOXYPHENYL)-N-(THIAZOL-2-YL)QUINOLINE-7-SULFONAMIDE] | 420 | 40 |  |  |  |
| COc1cc(C(F)(F)F)ccc1-c1c(N)cnc2cc(S(=O)(=O)Nc3nccs3)ccc12 [Example 283, 3-AMINO-4-(2-METHOXY-4-(TRIFLUOROMETHYL)PHENYL)-N-(THIAZOL-2-YL)QUINOLINE-7-SULFONAMIDE] | 210 | 10 |  |  |  |
| COc1cc(C(F)(F)F)ccc1-c1cncc2cc(S(=O)(=O)Nc3ccncn3)ccc12 [Example 285, 4-(2-METHOXY-4-(TRIFLUOROMETHYL)PHENYL)-N-(PYRIMIDIN-4-YL)ISOQUINOLINE-7-SULFONAMIDE HYDROCHLORIDE] | 580 | 40 |  |  |  |
| COc1cc(C(F)(F)F)ccc1-c1cncc2cc(S(=O)(=O)Nc3nccs3)ccc12 [Example 288, 4-(2-METHOXY-4-(TRIFLUOROMETHYL)PHENYL)-N-(THIAZOL-2-YL)ISOQUINOLINE-7-SULFONAMIDE] | 600 | 40 |  |  |  |
| COc1cc(C(F)(F)F)ccc1-c1nccc2cc(S(=O)(=O)Nc3nccs3)cnc12 [Example 291, 8-(2-METHOXY-4-(TRIFLUOROMETHYL)PHENYL)-N-(THIAZOL-2-YL)-1,7-NAPHTHYRIDINE-3-SULFONAMIDE] | 2530 | 160 |  |  |  |
| COC(=O)c1cccc2cc(S(=O)(=O)Nc3ncns3)ccc12 [Example 318, METHYL 6-(N-(1,2,4-THIADIAZOL-5-YL)SULFAMOYL)-1-NAPHTHOATE] | 37400 | > 10000 | 32 |  |  |
| O=S(=O)(Nc1ccncn1)c1ccc2c(-c3cnn(-c4cccc(Cl)c4)c3)nccc2c1 [Example 429, 1-(1-(3-CHLOROPHENYL)-1H-PYRAZOL-4-YL)-N-(PYRIMIDIN-4-YL)ISOQUINOLINE-6-SULFONAMIDE] | > 30000 |  | 54.7 |  |  |

More lines, in order of falling IC50 (Nav 1.7 [1]), values ahead:

| IC50 (Nav 1.7 [1]) [nM] | IC50 (Nav 1.7 [2]) [nM] | Nav1.7 Single Point Data IWQ (at […]) (%) (Nav 1.7 [2]) | Compound | IC50 (Nav 1.5; [3]) [nM] | IC50 (Nav 1.5; [4]) [nM] |
| --- | --- | --- | --- | --- | --- |
| 2020 | 220 |  | O=S(=O)(Nc1nccs1)c1ccc2c(-c3ccc(C(F)(F)F)cc3Cl)ccnc2c1 [Example 278, 4-(2-CHLORO-4-(TRIFLUOROMETHYL)PHENYL)-N-(THIAZOL-2-YL)QUINOLINE-7-SULFONAMIDE] |  |  |
| 500 |  |  | COc1cc(Cl)c(Cl)cc1-c1nccc2cc(S(=O)(=O)Nc3nccs3)ccc12 [Example 177, 1-(4,5-DICHLORO-2-METHOXYPHENYL)-N-(THIAZOL-2-YL)ISOQUINOLINE-6-SULFONAMIDE] |  | > 30000 |
| 500 | 20 |  | COc1cc(C#N)ccc1-c1ccnc2cc(S(=O)(=O)Nc3nccs3)ccc12 [Example 273, 4-(4-CYANO-2-METHOXYPHENYL)-N-(THIAZOL-2-YL)QUINOLINE-7-SULFONAMIDE] |  |  |
| 490 | 30 |  | COc1cc(F)ccc1-c1ccnc2cc(S(=O)(=O)Nc3nccs3)ccc12 [Example 274, 4-(4-FLUORO-2-METHOXYPHENYL)-N-(THIAZOL-2-YL)QUINOLINE-7-SULFONAMIDE] |  |  |
| 470 | 20 |  | COc1cc(C#N)ccc1-c1ncnc2cc(S(=O)(=O)Nc3nccs3)ccc12 [Example 269, 4-(4-CYANO-2-METHOXYPHENYL)-N-(THIAZOL-2-YL)QUINAZOLINE-7-SULFONAMIDE] |  |  |
| 450 |  |  | COc1cc(F)ccc1-c1ncnc2cc(S(=O)(=O)Nc3nccs3)ccc12 [Example 271, 4-(4-FLUORO-2-METHOXYPHENYL)-N-(THIAZOL-2-YL)QUINAZOLINE-7-SULFONAMIDE] |  | > 30000 |
| 380 |  |  | COc1cc(C(F)(F)F)ccc1-c1ncc(O)c2cc(S(=O)(=O)Nc3nccs3)ccc12 [Example 232, 4-HYDROXY-1-(2-METHOXY-4-(TRIFLUOROMETHYL)PHENYL)-N-(THIAZOL-2-YL)ISOQUINOLINE-6-SULFONAMIDE] |  | 20400 |
| 340 | 70 |  | COc1ccccc1-c1ccnc2cc(S(=O)(=O)Nc3nccs3)ccc12 [Example 277, 4-(2-METHOXYPHENYL)-N-(THIAZOL-2-YL)QUINOLINE-7-SULFONAMIDE] |  |  |
| 340 |  |  | COc1ccccc1-c1cncc2cc(S(=O)(=O)Nc3nccs3)ccc12 [Example 289, 4-(2-methoxyphenyl)-N-(thiazol-2-yl)isoquinoline-7-sulfonamide] |  | > 30000 |
| 330 |  |  | N#CCOc1cc(F)ccc1-c1nccc2cc(S(=O)(=O)Nc3nccs3)ccc12 [Example 192, 1-(2-(CYANOMETHOXY)-4-FLUOROPHENYL)-N-(THIAZOL-2-YL)ISOQUINOLINE-6-SULFONAMIDE] |  | > 30000 |
| 320 |  |  | COc1cc(C(F)(F)F)ccc1-c1cnnc2cc(S(=O)(=O)Nc3nccs3)ccc12 [Example 259, 4-(2-METHOXY-4-(TRIFLUOROMETHYL)PHENYL)-N-(THIAZOL-2-YL)CINNOLINE-7-SULFONAMIDE] |  | > 30000 |
| 320 | 60 |  | COc1cc(C(F)(F)F)ccc1-c1c(C#N)cnc2cc(S(=O)(=O)Nc3nccs3)ccc12 [Example 284, 3-CYANO-4-(2-METHOXY-4-(TRIFLUOROMETHYL)PHENYL)-N-(THIAZOL-2-YL)QUINOLINE-7-SULFONAMIDE] |  |  |
| 280 | 10 |  | COc1cc(C(F)F)ccc1-c1ncnc2cc(S(=O)(=O)Nc3nccs3)ccc12 [Example 266, 4-(4-(DIFLUOROMETHYL)-2-METHOXYPHENYL)-N-(THIAZOL-2-YL)QUINAZOLINE-7-SULFONAMIDE] |  |  |
| 150 |  |  | COc1cc(C(F)F)c(Cl)cc1-c1ncnc2cc(S(=O)(=O)Nc3nccs3)ccc12 [Example 270, 4-(5-CHLORO-4-(DIFLUOROMETHYL)-2-METHOXYPHENYL)-N-(THIAZOL-2-YL)QUINAZOLINE-7-SULFONAMIDE] |  | 7440 |
